# According to patent publication US5070210A, “Novel ketenimines as intermediates for insecticides” (ICI Americas Inc., priority 1990, dated 1991):
# Columns and labels:
# Type in all cases: in vivo
# [1] = tested on: Housefly [Musca domestica]; experiment: Housefly insecticidal test; conditions: μg per 25 female flies; mortality after 48 hours
# Method in brief: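 Acetone solutions (with 0.01% peanut oil) dried onto dish bottoms, then 25 female flies, 1-2 days old, caged over the residue with sugar water. Mortality scored at 48 hours; LC50 from dosage-mortality curves, in μg per 25 female flies, top level 100 μg.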
# [2] = tested on: Tobacco Budworm [Heliothis virescens (Fabricius)] larvae; experiment: Tobacco budworm contact test; conditions: second-instar larvae, percent in solution, 5 days
# Method in brief: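 Cotton cotyledons dipped 2–3 s in compound in 50-50 acetone-water, dried, then infested with 5 second-instar larvae and held 5 days at high humidity. Mortality scored; LC50 from dosage-mortality curves, expressed as percent compound in solution, concentrations from 0.1% downward.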
# [3] = tested on: Tobacco Budworm [Heliothis virescens (Fabricius)] eggs; experiment: Tobacco budworm egg test; conditions: 2-day old eggs, percent in solution
# Method in brief: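 Paper-towel patches of 2-day-old eggs dipped in acetone solutions of compound (0.1% downward), held on larval rearing medium at 78° F. Mortality scored once all control eggs had hatched and larvae were feeding; LC50 from dosage-mortality curves, expressed as percent compound in solution.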
# [4] = tested on: Beet Armyworm (Spodoptera exigua); experiment: Beet armyworm insecticidal test; conditions: second-instar larvae, percent in solution; five days
# Procedure: The compounds in Tables 1 and 2 above were tested for insecticidal activity using the following testing procedures. LC50 values, based on the results of these tests and calculated according to dosage-mortality curves, are expressed in Table 3.
# Beet Armyworm (Spodoptera exigua):
# Test compounds were diluted in a 50-50 acetone-water solution. Young leaves of sugar beets (Beta vulgaris) were immersed in the test solutions for 2-3 seconds and placed on a wire screen to dry. The dried leaves were placed in petri dishes containing a moistened filter paper and infested with five second-instar beet armyworm larvae. The dishes were placed in a high humidity chamber. Mortality of the larvae was recorded five days later. Test concentrations ranged from 0.1% downward. The LC-50 values are expressed below in Table 3 under the heading "BAW" in terms of percent of the test compound in solution.
# [5] = tested on: Cabbage Looper [Trichoplusia ni (Hubner)]; experiment: Cabbage looper insecticidal test; conditions: second-instar larvae, percent in solution; 3-5 days
# Method in brief: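 Squash cotyledons dipped 2-3 s in compound in 50-50 acetone-water, dried, then infested with 5 second-instar larvae and held at high humidity. Mortality scored after 3-5 days at concentrations from 0.1% downward. LC50 from dosage-mortality curves, expressed as percent compound in solution.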
# [6] = tested on: Aster Leafhopper [Macrosteles fascifrens (Stal)]; experiment: Aster leafhopper insecticidal test; conditions: adults/nymphs, percent in solution; 48 hours
# Method in brief: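 Three ~10 cm oat seedlings per cup were dipped 2-3 seconds in 50-50 acetone-water compound solutions, dried, and caged with ten adult/nymph leafhoppers. Mortality was counted after 48 hours at concentrations from 0.05% downward. LC50, as percent compound in solution, came from dosage-mortality curves.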
# [7] = tested on: Maize weevil [Sitophilus Zeamais (Motschulsky)]; experiment: Maize weevil insecticidal test; conditions: adult weevils, percent in solution; 48 hours
# Method in brief: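 LC50, in percent of compound in solution, was derived from dosage-mortality curves after 48 h at about 25 °C. Ten adult weevils per container fed on four corn seeds briefly immersed in acetone:water (50:50) solutions of up to 0.01% and dried.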
SMILES,"LC50, HF [1]","LC50, TBW, C (TBW-C) [2]","LC50, TBW, E (TBW-E) [3]","LC50, BAW [4]","LC50, CL [5]","LC50, LH [6]","LC50, MW [7]"
CC(C)C(=Nc1ccc(Cl)cc1)OCc1cccc(Oc2ccccc2)c1 [Compound 2],4.5 µg,0.0009%,0.04%,0.01%,0.006%,0.0003%,
Clc1ccc(N=C(OCc2cccc(Oc3ccccc3)c2)C(Cl)Cl)c(Cl)c1 [Compound 4],100 µg,0.05%,> 0.1%,0.04%,0.007%,> 0.05%,
Clc1ccccc1N=C(OCc1cccc(Oc2ccccc2)c1)C(Cl)Cl [Compound 34],> 100 µg,0.01%,> 0.1%,0.015%,0.015%,,
Fc1ccc(N=C(OCc2cccc(Oc3ccccc3)c2)C2CC2)cc1 [Compound 45],30 µg,0.01%,0.08%,0.1%,0.03%,> 0.05%,
CC(C)C(=Nc1cccc(F)c1)OCc1cccc(Oc2ccccc2)c1 [Compound 47],10 µg,0.002%,0.06%,0.002%,0.002%,0.0003%,
CC(C)C(=Nc1ccc(F)cc1)OCc1ccc(F)c(Oc2ccccc2)c1 [Compound 53],2 µg,0.0025%,0.02%,0.003%,0.0005%,,
Cc1c(Cl)cccc1N=C(OCc1cccc(Oc2ccccc2)c1)C(Cl)Cl [Compound 97],10 µg,0.004%,0.04%,0.01%,0.002%,,
CCC(C)C(=Nc1ccc(F)c(Cl)c1)OCc1cccc(Oc2ccccc2)c1 (stereo not shown) [Compound 122],37 µg,,0.05%,0.01%,0.0007%,> 0.05%,> 0.01%
Cc1ccc(N=C(OCc2cccc(Oc3ccccc3)c2)C(Cl)Cl)cc1 [Compound 139],4.2 µg,0.005%,0.05%,0.007%,0.015%,,
O=[N+]([O-])c1ccc(N=C(OCc2cccc(Oc3ccccc3)c2)C(Cl)Cl)cc1 [Compound 173],18 µg,> 0.1%,> 0.1%,> 0.1%,0.02%,,
CC(C)C(=Nc1ccc(Br)c(F)c1)OCc1ccc(F)c(Oc2ccc(F)cc2)c1 [Compound 282],16 µg,0.0007%,0.02%,0.0025%,0.00007%,,0.008%
CC(C)C(=Nc1ccc2c(c1)OC(C)(C)O2)OCc1ccc(F)c(Oc2ccc(F)cc2)c1 [Compound 283],23 µg,0.0009%,0.016%,0.0013%,0.00009%,,> 0.01%
CC(C)C(=Nc1ccc(F)c(I)c1)OCc1ccc(F)c(Oc2ccc(Cl)cc2)c1 [Compound 326],25 µg,0.0005%,0.03%,0.004%,0.00015%,,
CC(C)C(=Nc1ccc(F)c(Cl)c1F)OCc1cccc(Oc2ccccc2)c1 [Compound 332],7 µg,0.00075%,0.015%,0.0012%,0.00045%,,
CC(C)C(=Nc1ccc(Br)cc1)OCc1ccc(F)c(Oc2ccc(F)cc2)c1 [Compound 333],15 µg,0.00075%,0.025%,> 0.1%,0.00024%,,> 0.01%
CC(C)C(=Nc1ccc(I)cc1)OCc1ccc(F)c(Oc2ccc(F)cc2)c1 [Compound 335],34 µg,0.00025%,0.05%,> 0.1%,0.00027%,,> 0.01%
CC(C)C(=Nc1ccc(F)c(Cl)c1)OCc1cc(Oc2ccc(F)cc2)c(F)cc1F [Compound 343],40 µg,0.00025%,> 0.1%,> 0.1%,0.00027%,,> 0.01%
CC(C)C(=Nc1ccc2c(c1)OC(F)(F)O2)OCc1cccc(Oc2ccc(Cl)cc2)c1 [Compound 450],72 µg,0.0001%,0.015%,0.005%,0.00016%,,0.01%
CC(C)C(=Nc1ccc(F)c(Cl)c1)OCc1cccc(Oc2ccc(Cl)cc2)n1 [Compound 463],8 µg,,0.0075%,0.0024%,0.00009%,0.0003%,0.01%
CC(C)C(=Nc1ccc(F)c(Cl)c1F)OCc1cccc(Oc2ccc(Cl)cc2)n1 [Compound 500],16 µg,0.00075%,0.02%,0.002%,0.00009%,,
